Blank lines part the entries; values can stand above or below the compound they belong to.
Experiments:
PGC-1α = test: Expression of PGC-1α mRNA in precursor BAT cells with norepinephrine (quantitative PCR); assay type: cell-based, mice; conditions: for PGC-1α mRNA in the presence of norepinephrine: 3 μM compound for seven days, then 1 μM norepinephrine for 2 hours
Protocol: Another example of the ability of augmented signaling between cyclic nucleotides and compounds of Formula I is shown by the effect on expression of PGC-1a, a known regulator of mitochondrial biogenesis. Increased numbers of mitochondria are predictive of utility for the reduction of body weight.
Precursor BAT cells were isolated as described above and treated with or without 3 μM compounds: 1.] Compound A: 5-(4-(2-(5-ethylpyridin-2-yl)-2-oxoethoxy)benzyl)-1,3-thiazolidine-2,4-dione; 2.] Compound C: 5-(4-(2R)-2-(5-ethylpyridin-2-yl)-2-hydroxyethoxyy)benzyl)-1,3-thiazolidine-2,4-dione; or Compound B: 5-(4-(2-(3-methoxyphenyl)-2-oxoethoxy)benzyl)-1,3-thiazolidine-2,4-dione for seven days followed by treatment with 1 μM norepinephrine for 2 hours. Total RNA was isolated from the cells and the RNA message (mRNA) for PGC-1α was measured by quantitative polymerase chain reactions.

BAT precursor cells = test: BAT differentiation: UCP1 protein by Western blot; assay type: cell-based, mice; conditions: BAT precursor cells treated with 0.1 to 10 μM for 7 days
Protocol: Precursors of BAT are isolated from the interscapular adipose pad of either normal or diabetic mice and cultured in vitro as described below based on the modifications recited in Petrovic N, Shabalina I G, Timmons J A, Cannon B, Nedergaard J. Am. J. Physiol. Endocrinol. Metab. 295:E287-E296, 2008, hereby incorporated by reference.
The brown fat pads are pooled and minced, digested for 45 minutes in isolation buffer containing 0.15% (wt/vol) collagenase. The cell suspension is filtered through a 100 μm nylon filter and centrifuged at 200×g for 5 minutes. […]
Cells are then treated with the compounds, compound salts, or co-crystals thereof being assayed for BAT differentiation. […] The development of the BAT phenotype is assessed by direct measure of the uncoupling protein 1 (UCP1), which is emblematic of brown adipose cells.
Following treatment of the cells, the growth medium is aspirated, rinsed with PBS, and lysed with KHM buffer containing 1% Igepal CA-630, and a protease inhibitor cocktail. The lysate is centrifuged at 8,000×g for 5 minutes (4° C.), the supernatant containing the cell lysate is collected and total protein analyzed using the BCA method. […] Densitometry is conducted on the scanned films using ImageJ software and analyzed using GraphPad Prism software. […]

[1] = AUC of compound related materials after oral dosing of Compound B forms; assay type: in vivo; conditions: 250 mg free acid equivalents, formulated tablets, N=4 cynomolgus monkeys
Protocol: Referring to FIG. 8, the area under the curve (AUC) of compound related materials was compared following dosing of 250 mg of Compound B as powder in capsules of free acid (PIC), formulated tablets of micronized free acid, or formulated tablets of the Na or K salt of Compound B given at the same free acid equivalents. (N=4 cynomolgus monkeys). The formulated, compressed tablet also contained in each case approximately 40.5% lactose, 16.8% microcrystalline cellulose, 1.9% Croscarmellose sodium, 0.5% colloidal silicon dioxide, and 0.9% magnesium stearate.

diabetic KKAy mouse = test: Blood glucose lowering in diabetic KKAy mouse; assay type: in vivo; conditions: diabetic KKAy mice (N=6), gavage once daily, plasma glucose after 4 daily doses
Protocol: In these experiments, free base or sodium salt was given to diabetic KKAy mice (N=6) and blood glucose was measured after 4 days of daily treatment at the doses indicated. KKAy mice, 8-12 weeks of age, were given the doses of the compounds according to the dosages on the X axis of FIG. 9. The compounds were given by gavage once daily at 10 mg/kg. On the fifth day (after 4 daily doses at the levels show) a blood sample was taken to measure plasma glucose.

[2] = Bioavailability of sodium salt of Compound A, crossover, oral capsule versus iv injection; assay type: in vivo; conditions: 90 mg free base equivalents, 4 male cynomolgus monkeys
Protocol: The monkeys fasted overnight and were dosed by oral gavage washed down with 10 ml tap water. Blood samples were taken at 0.25, 0.5, 1, 2, 3, 4, 6, 9, 12, 24, and 48 hours after a single dosage was administered and assayed for drug related materials with a LCMS assay using an internal standard. 90 mg of drug was put in 00 gelatin capsules containing 90 mg of free base equivalents. This was compared to an iv injection of 2 ml/kg and 45 mg of free base solution in 50% hydroxypropyl b-cyclodextran. The absolute availability versus an iv injection was determined for both parent compound and major metabolite.

SMILES: CCc1ccc(C(=O)COc2ccc(CC3SC(=O)NC3=O)cc2)nc1 (stereo not shown) [Compound A, 5-(4-(2-(5-ethylpyridin-2-yl)-2-oxoethoxy)benzyl)-1,3-thiazolidine-2,4-dione]
- PGC-1α mRNA in the presence of norepinephrine (PGC-1α): increase

SMILES: CCc1ccc(C(=O)COc2ccc(CC3SC(=O)NC3=O)cc2)nc1 (stereo not shown) [5-(4-(2-(5-ethylpyridin-2-yl)-2-oxoethoxy)benzyl)-1,3-thiazolidine-2,4-dione]
- amount of UCP1 (Western blot) (BAT precursor cells): dose-dependent increase

SMILES: NC[C@H](O)c1ccc(O)c(O)c1 [norepinephrine, reference compound]
- PGC-1α mRNA, norepinephrine alone (PGC-1α; absence of compound (control), 1 μM norepinephrine for 2 hours): did not produce an increase

- bioavailability (AUC of compound related materials) versus free acid [1]: significantly higher bioavailability
SMILES: COc1cccc(C(=O)COc2ccc(CC3SC(=O)[N-]C3=O)cc2)c1.[K+] (stereo not shown) [potassium salt of Compound B, Potassium 5-{4-[2-(3-methoxyphenyl)-2-oxoethoxy]benzyl}-2,4-dioxo-1,3-thiazolidin-3-ide]

- bioavailability (AUC of compound related materials) versus free acid [1]: significantly higher bioavailability
SMILES: COc1cccc(C(=O)COc2ccc(CC3SC(=O)[N-]C3=O)cc2)c1.[Na+] (stereo not shown) [sodium salt of Compound B, Sodium 5-{4-[2-(3-methoxyphenyl)-2-oxoethoxy]benzyl}-2,4-dioxo-1,3-thiazolidin-3-ide]

SMILES: COc1cccc(C(=O)COc2ccc(CC3SC(=O)NC3=O)cc2)c1 (stereo not shown) [Compound B, 5-(4-(2-(3-methoxyphenyl)-2-oxoethoxy)benzyl)-1,3-thiazolidine-2,4-dione]
- PGC-1α mRNA in the presence of norepinephrine (PGC-1α): increase

- absolute bioavailability of major metabolite versus free base [2]: significantly higher bioavailability
- absolute bioavailability of parent compound versus free base [2]: significantly higher bioavailability
SMILES: CCc1ccc(C(=O)COc2ccc(CC3SC(=O)[N-]C3=O)cc2)nc1.[Na+] (stereo not shown) [sodium salt of Compound A, Sodium 5-{4-[2-(5-ethylpyridin-2-yl)-2-oxoethoxy]benzyl}-2,4-dioxo-1,3-thiazolidin-3-ide]
- lowering blood glucose (diabetic KKAy mouse): excellent dose response

SMILES: CCc1ccc([C@@H](O)COc2ccc(CC3SC(=O)NC3=O)cc2)nc1 (stereo partly shown) [Compound C]
- PGC-1α mRNA in the presence of norepinephrine (PGC-1α): increase

Reference: US20120322728A1, “PPAR-SPARING THIAZOLIDINEDIONES AND COMBINATIONS FOR THE TREATMENT OF DIABETES MELLITUS AND OTHER METABOLIC DISEASES” (Metabolic Solutions Development Company, LLC, priority 2009, published 2012)
